This note sets out measurements from article PMC12935919 (Frontiers in Pharmacology, 2026).

No end group written: not given here.

The test system of test [1] is patients with muscle atrophy (ICD-10-CM code: M62.5). The test can be described thus: Clinical trial: 6-m walk test. The class given is in vivo, human. The protocol:
The study was conducted at Biosite Research Private Limited (Shanthipura, India) under the New Drugs and Clinical Trials Rules (2019) issued by CDSCO (Ministry of Health and Family Welfare, Government of India), and in compliance with GCP, applicable local regulatory requirements, the Declaration of Helsinki ([…]), ICMR guidelines (2017), and ICH-GCP E6 (R2). Ethical approval was obtained from the Excel Hospital Institutional Ethics Committee (ECR/1670/Inst/TG/2022) and ethics committees of other participating centers, and the trial was prospectively registered (CTRI/2024/01/061919). All participants provided written informed consent prior to any study procedures. […] Efficacy endpoints were evaluated as changes from baseline to Week 12; efficacy analyses were conducted in the per-protocol population, and safety analyses included all randomized participants who received at least one dose of study product (Supplementary Figure S2). […] Continuous variables were summarized as N, mean (SD), median, minimum, and maximum, and categorical variables as n (%), with percentages calculated as n/N × 100. Changes from baseline to Week 12 in DEXA-assessed muscle mass, 6-m walk test, and handgrip strength were analyzed using ANCOVA, adjusting for the corresponding baseline value. […]

Test [2] has as its system Fc gamma-tagged myostatin/GDF-8. As to the kind of experiment: ELISA-based receptor binding assay. Also on record: species or system human. On the procedure:
Plates were washed with PBST and blocked with 3% (w/v) BSA for 2 h at room temperature. They were then incubated for 2 h with Fc gamma-tagged myostatin/GDF-8 (Sino Biological, #50441-M01H) diluted in PBST. After another PBST wash, plates were treated with HRP-linked Anti-IgG Fc gamma (CST, #32935S, 1:1,000) for 2 h. Finally, color was developed with TMB (Sigma, #T0440), the reaction stopped with 1 M H2SO4, and absorbance was measured at 450 nm.

Test [3] deals with patients with muscle atrophy (ICD-10-CM code: M62.5). The test can be described thus: Clinical trial: handgrip strength (hand dynamometer). The class given is in vivo, human. The protocol: (§1) The study was conducted at Biosite Research Private Limited (Shanthipura, India) under the New Drugs and Clinical Trials Rules (2019) issued by CDSCO (Ministry of Health and Family Welfare, Government of India), and in compliance with GCP, applicable local regulatory requirements, the Declaration of Helsinki ([…]), ICMR guidelines (2017), and ICH-GCP E6 (R2). Ethical approval was obtained from the Excel Hospital Institutional Ethics Committee (ECR/1670/Inst/TG/2022) and ethics committees of other participating centers, and the trial was prospectively registered (CTRI/2024/01/061919). All participants provided written informed consent prior to any study procedures. Key eligibility criteria included adults aged ≥18 years with low muscle mass by DEXA (men: <7.0 kg/m^2; women: <5.4 kg/m^2) and either low handgrip strength (men: <28 kg; women: <18 kg) or low physical performance (6-m walk speed <1.0 m/s). Major exclusion criteria included uncontrolled systemic disease, musculoskeletal or neurological disorders, recent anabolic steroid use, and concomitant medications known to affect protein metabolism; full inclusion and exclusion criteria are provided in Supplementary Table S1. Of 89 patients screened, seven were screen failures and two withdrew prior to randomization; 80 eligible participants were enrolled and proceeded to the baseline/randomization visit (mean age 38.83 ± 9.91 years; range 23-69). […] The study was double-blind; participants, investigators, and study staff were unaware of treatment allocation throughout the trial. […] Efficacy endpoints were evaluated as changes from baseline to Week 12; efficacy analyses were conducted in the per-protocol population, and safety analyses included all randomized participants who received at least one dose of study product (Supplementary Figure S2). Of 80 randomized participants, 75 completed the study. Statistical analyses were performed using SAS (version 9.4; SAS Institute Inc., Cary, NC, USA). Continuous variables were summarized as N, mean (SD), median, minimum, and maximum, and categorical variables as n (%), with percentages calculated as n/N × 100. Changes from baseline to Week 12 in DEXA-assessed muscle mass, 6-m walk test, and handgrip strength were analyzed using ANCOVA, adjusting for the corresponding baseline value. Least-squares means (LSMs), 95% confidence intervals, and two-sided p-values were reported, with p < 0.05 considered statistically significant.

Test [4] has the same test system. The test can be described thus: Clinical trial: serum biomarkers. Type of test: in vivo, human. On the procedure:
as §1

In test [5] the test system is SAMP8 mice. As to the kind of experiment: Immunofluorescence in skeletal muscle tissues. Type of test: in vivo, mouse. The note with it: oral gavage 45 weeks, 20 mg in 200 µL PBS. On the procedure:
Eight week old male senescence-accelerated mouse-prone 8 (SAMP8)/Ta Slc and senescence-accelerated mouse-resistant 1 (SAMR1)/Ta Slc mice (weighing 30 ± 2 g) were purchased from Central Lab Animal Inc. (Seoul, Korea) and housed at 24 °C in cages under a 12/12 h light/dark cycle with ad libitum access to food and water. […] Mice in all groups were dosed once daily by oral gavage for 45 weeks. […] This study was approved by the Institutional Animal Care and Use Committee (approval number CG-R22-001).
Muscle tissues fixed in formalin were sectioned into 5-μm paraffin section. They were treated with heat-mediated antigen retrieval in TRS buffer TRS buffer (pH 6.2) and peroxide-blocked using reagent (Epredia, TA-125-PBQ). Primary antibodies—anti-myostatin (Abcam, ab124721), anti-atrogin-1/MAFbx (Santa Cruz, sc-166806), and anti-fast MyHC (Abcam, ab91506)—were diluted 1:250 or 1:500 in anti-body diluent (GBI Labs, E09-300) and incubated overnight at 4 °C. […] Nuclei were stained with 4′,6-diamidino-2-phenylindole (DAPI; blue) for 20 min, mounted using Aqua Mounting Media (Biomeda), and imaged at 200× with a confocal fluorescence microscope (LEICA, Wetzlar, Germany). Fluorescence intensities were quantified using ImageJ software, and results were statistically analyzed.

For the substance EAEYEHL-OH [Myoki], the “Time to complete 6-meter walk test (TTC-6mWT), change from baseline to Week 12 (LS mean)” value in test [1] (200 mg peptide/day oral, N = 38, 95% CI (−1.36 to −0.87), placebo −0.77) is -1.12 s. In test [1] (Week 12, 200 mg/day, ANCOVA, p <0.01), the “Time to complete 6-meter walk test, difference between placebo and treatment (95% CI)” value was -0.34 s. In addition, the binding to myostatin entry in test [2] (Myoki coated at 125, 250, 500, and 1,000 μM) is “directly and concentration-dependently binds to myostatin”. Moreover, in test [2] (Myoki-coated plates, ≥62.5 μM, absorbance 450 nm), the “myostatin binding compared to the control” value is “more than 150%”. The “Hand grip strength test (Left hand), change from baseline to Week 12 (LS mean)” value in test [3] (200 mg peptide/day oral, N = 38, 95% CI (0.77 to 1.37), placebo 0.81) is given as 1.07 kg. The “Hand grip strength test (Right Hand), change from baseline to Week 12 (LS mean)” value in test [3] (200 mg peptide/day oral, N = 38, 95% CI (0.94 to 1.60), placebo 0.85) is listed as 1.27 kg. Moreover, the “Hand grip strength test (Left hand), difference between placebo and treatment (95% CI)” value in test [3] (Week 12, 200 mg/day, ANCOVA, p 0.02) came to 0.27 kg. Also, the “Hand grip strength test (Right Hand), difference between placebo and treatment (95% CI)” value in test [3] (Week 12, 200 mg/day, ANCOVA, p 0.04) amounted to 0.43 kg. Besides, the “IGF-1, change from baseline to Week 12 (LS mean)” value in test [4] (200 mg peptide/day oral, N = 38, 95% CI (19.49 to 43.40), placebo 13.51) is on record as 31.44 ng/mL. Besides, the “TNF-alpha, change from baseline to Week 12 (LS mean)” value in test [4] (200 mg peptide/day oral, N = 38, 95% CI (−1.54 to 9.48), placebo 4.3) was determined as 3.97 pg/mL. The “Creatine kinase (CK-MB), change from baseline to Week 12 (LS mean)” value in test [4] (200 mg peptide/day oral, N = 38, 95% CI (−2.13 to 1.04), placebo 3.41) is -0.54 ng/mL. In test [4] (200 mg peptide/day oral, N = 38, 95% CI (−2.59 to 2.67), placebo 1.31), the “IL-6, change from baseline to Week 12 (LS mean)” value came out at 0.04 pg/mL. The “Aspartate aminotransferase, change from baseline to Week 12 (LS mean)” value in test [4] (200 mg peptide/day oral, N = 38, 95% CI (−6.14 to 0.49), placebo 2.57) is listed as −2.83 IU/L. Moreover, the “Sex hormones (Estrogen), change from baseline to Week 12 (LS mean)” value in test [4] (200 mg peptide/day oral, N = 38, 95% CI (−8.11 to 3.36), placebo −1.98) was -2.37 pg/mL. Besides, the “Myoglobin, change from baseline to Week 12 (LS mean)” value in test [4] (200 mg peptide/day oral, N = 38, 95% CI (−10.33 to −2.56), placebo 8.15) was -6.45 ng/mL. Also, the “Sex hormones (testosterone), change from baseline to Week 12 (LS mean)” value in test [4] (200 mg peptide/day oral, N = 38, 95% CI (−21.09 to 114.17), placebo −29.9) was 46.54 pg/mL. In addition, the “Aspartate aminotransferase, difference between placebo and treatment (95% CI)” value in test [4] (Week 12, 200 mg/day, p 0.025) is on record as −5.39 IU/L. Further, in test [4] (Week 12, 200 mg/day, p 0.038), the “IGF-1, difference between placebo and treatment (95% CI)” value came out at 17.93 ng/mL. Moreover, in test [4] (Week 12, 200 mg/day, p <0.01), the “Creatine kinase (CK-MB), difference between placebo and treatment (95% CI)” value is -3.95 ng/mL; the “Myoglobin, difference between placebo and treatment (95% CI)” value was -14.6 ng/mL. Moreover, the fast-MyHC fluorescence intensity result in test [5] (n = 5) is “restored toward SAMR1 levels”. Also, the “atrogin-1/MAFbx fluorescence intensity, gastrocnemius” value in test [5] (n = 5, vs SAMP8 group) is recorded as “significantly decreased”.
